≈ marks a conversion by molar mass, not a printed value.
Test system: Bulinus africanus
Test: Molluscicidal activity against Bulinus africanus
Type: functional
Conditions: for LC50: Bulinus africanus, read-out: LD50 (the source's name)

**Q.** What does the source list for `COC(=O)C1=CO[C@@H](O)[C@@H]2C(COC(C)=O)=CC[C@H]12`?
**A.** LD90: 39.4 ppm; LC50: 21.7 µg/mL (≈ 81 µM)

**Q.** Which results are given for `COC(=O)C1=CO[C@@H](O)[C@@H]2C(CO)=CC[C@H]12` [GENIPIN]?
**A.** LD90: 32.57 ppm; LC50: 25.3 µg/mL (≈ 112 µM)
